Experiment: solvent given as SMILES

SMILES: CCn1c2ccccc2c2cc(-c3cc(-c4ccc5c(c4)c4ccccc4n5CC)nc(SC)n3)ccc21
- absorption maximum (in C1CCOC1): 371 nm
- absorption maximum (in CCOC(C)=O): 369 nm
- absorption maximum (in CN(C)C=O): 374 nm
- absorption maximum (in Cc1ccccc1): 370 nm
- absorption maximum (in ClCCl): 370 nm

SMILES: Fc1ccc(C#Cc2cc(C#Cc3ccc(F)cc3)c(C#Cc3ccc(F)cc3)c(C#Cc3ccc(F)cc3)c2C#Cc2ccc(F)cc2)cc1
- absorption maximum (in ClCCl): 371 nm

SMILES: COc1ccccc1-c1nc(-c2ccc(C(F)(F)F)cc2)n(-c2ccc(C)cc2)c1-c1ccccc1OC
- absorption maximum (in CC(C)O): 285 nm
- absorption maximum (in CCCCCC): 285 nm
- absorption maximum (in CO): 284 nm
- absorption maximum (in CS(C)=O): 286 nm
- absorption maximum (in ClCCl): 286 nm

SMILES: CC1=CC(C)=[N+]2C1=C(c1ccc(I)cc1)c1c(C)cc(C)n1[B-]2(Oc1ccccc1)Oc1ccccc1
- absorption maximum (in ClC(Cl)Cl): 506 nm

SMILES: COc1ccccc1
- absorption maximum (in C1CCCCC1): 267.24 nm

SMILES: O=C1C=C(Nc2cc(F)cc(F)c2)C(=O)c2ccccc21
- absorption maximum (in CO): 448 nm

SMILES: CC(C)(C)c1ccc2c(c1)c1cc(C(C)(C)C)ccc1n2-c1cc(C(=O)c2ccncc2)cc(-n2c3ccc(C(C)(C)C)cc3c3cc(C(C)(C)C)ccc32)c1
- absorption maximum (in Cc1ccccc1): 396 nm

SMILES: CCC1(CC)c2cc(C=O)ccc2-c2ccc(N(C)C)cc21
- absorption maximum (in C1CCCCC1): 385 nm
- absorption maximum (in CC#N): 385 nm
- absorption maximum (in CCO): 388 nm
- absorption maximum (in CCOCC): 379 nm
- absorption maximum (in CS(C)=O): 395 nm
- absorption maximum (in ClCCl): 392 nm
- absorption maximum (in c1ccccc1): 388 nm

SMILES: CCCCCCCCC1(CCCCCCCC)c2cc(C#CC#Cc3ccc(N(c4ccccc4)c4ccccc4)cc3)ccc2-c2ccc(C=O)cc21
- absorption maximum (in C1CCOC1): 377 nm
- absorption maximum (in C1COCCO1): 383 nm
- absorption maximum (in CC#N): 375 nm
- absorption maximum (in CC(C)=O): 389 nm
- absorption maximum (in CCCCCC): 378 nm
- absorption maximum (in CCOC(C)=O): 381 nm
- absorption maximum (in CN(C)C=O): 382 nm
- absorption maximum (in CS(C)=O): 382 nm
- absorption maximum (in Cc1ccccc1): 387 nm
- absorption maximum (in ClC(Cl)Cl): 375 nm
- absorption maximum (in ClCCl): 365 nm

SMILES: C1=CC2=Nc3cccc[n+]3CN2C=C1
- absorption maximum (in CO): 412 nm

SMILES: Cc1c(C(=O)c2c(F)cc(F)cc2F)c2ccc3cccc4c5cccc6ccc1c(c65)c2c34
- absorption maximum (in ClCCl): 390 nm

SMILES: NC(=O)Cc1cccc2ccccc12
- absorption maximum (in C1COCCO1): 283 nm
- absorption maximum (in CC#N): 282 nm
- absorption maximum (in CCO): 282 nm
- absorption maximum (in ClC(Cl)Cl): 283 nm
- absorption maximum (in O): 280 nm
- absorption maximum (in OCCO): 283 nm
- absorption maximum (in [2H]O[2H]): 280 nm

SMILES: COc1ccc(N(c2ccccc2)c2ccc(OC)cc2)cc1
- absorption maximum (in Cc1ccccc1): 300 nm

SMILES: COc1cccc2oc(-c3cc4c(OC)cccc4oc3=O)cc12
- absorption maximum (in CC#N): 383 nm
- absorption maximum (in CCOC(C)=O): 385 nm
- absorption maximum (in CS(C)=O): 389 nm
- absorption maximum (in Cc1ccccc1): 389 nm
- absorption maximum (in O): 384 nm

SMILES: COc1cccc(/C=C/c2ccccc2)c1
- absorption maximum (in CC#N): 295 nm

SMILES: c1ccc(C2=C(c3ccccn3)[Si](c3ccccc3)(c3ccccc3)c3ccccc32)cc1
- absorption maximum (in ClCCl): 339 nm

SMILES: CCC1(CC)c2ccccc2-c2ccc(C#Cc3cc(C#Cc4ccc5c(c4)C(CC)(CC)c4ccccc4-5)c4ccc5c(C#Cc6ccc7c(c6)C(CC)(CC)c6ccccc6-7)cc(C#Cc6ccc7c(c6)C(CC)(CC)c6ccccc6-7)c6ccc3c4c65)cc21
- absorption maximum (in Cc1ccccc1): 488 nm

SMILES: CC[Si](CC)(CC)c1cc2ccc3cccc4ccc(c1C(=O)NC(C)(C)C)c2c34
- absorption maximum (in ClC(Cl)Cl): 381 nm

SMILES: COc1ccc(C2=C(C)C3=C(c4c(-c5ccccn5)nc5ccccn45)c4c(C)c(-c5ccc(OC)cc5)c(C)n4[B-](F)(F)[N+]3=C2C)cc1
- absorption maximum (in ClCCl): 555 nm

SMILES: CC[N+]1(CC)CN2C(=N1)C(C(=O)O)=Cc1ccc(Cl)cc12
- absorption maximum (in O): 367 nm

SMILES: COc1ccccc1-c1nc2c3cccnc3c3ncccc3c2n1-c1ccccc1
- absorption maximum (in Cc1ccccc1): 363 nm

SMILES: COc1ccc(C2=C/C(=C\c3ccc(C#N)cc3)C(=O)N2)cc1OC
- absorption maximum (in C1COCCO1): 457 nm

SMILES: CC(C)(C)c1ccc(Oc2cc3c4c(cc(Oc5ccc(C(C)(C)C)cc5)c5c6c(Oc7ccc(C(C)(C)C)cc7)cc7c8c(cc(Oc9ccc(C(C)(C)C)cc9)c(c2c45)c86)C(=O)C2=C7O[B-](F)(F)[n+]4c2ccc2ccccc24)C2=C(C3=O)c3ccc4ccccc4[n+]3[B-](F)(F)O2)cc1
- absorption maximum (in ClCCl): 650 nm

SMILES: C[Si]1(c2ccccc2)C(c2ccc3c4ccccc4n(-c4ccccc4)c3c2)=C(c2ccccc2)C(c2ccccc2)=C1c1ccc2c3ccccc3n(-c3ccccc3)c2c1
- absorption maximum (in C1CCOC1): 398 nm

SMILES: CC(C)(C)c1ccc2c(c1)c1cc(C(C)(C)C)ccc1n2-c1ccc(-c2cccs2)s1
- absorption maximum (in ClCCl): 340 nm

SMILES: CCCCCCc1cc2c(s1)-c1sc(CCCCCC)cc1P(c1ccccc1)(c1ccccc1)=[O+][B-]2(c1c(C)cc(C)cc1C)c1c(C)cc(C)cc1C
- absorption maximum (in C1CCOC1): 431 nm

SMILES: CCC1=C(C)C2C(c3ccc(-c4ccc(-c5nc6c7ccccc7c7ccccc7c6n5-c5ccc(C(C)(C)C)cc5)cc4)cc3)c3c(C)c(CC)c(C)n3[B-](F)(F)[N+]2=C1C (configuration not stated)
- absorption maximum (in ClC(Cl)Cl): 526 nm

SMILES: COc1cc(/C=C/CO)ccc1O
- absorption maximum (in O): 295 nm

From the Deep4Chem optical property database
